From patent US10168342B2, “Lipid probes and uses thereof” (THE SCRIPPS RESEARCH INSTITUTE, priority 2015, dated 2019)
Read-outs that look alike come from different tables or passages of the source.

What was measured:
[1] = molecular target: AEA-DA lipid probe targets in Neuro2a cells (Mus musculus, UniProt O35129)
[2] = molecular target: T1, AEA-DA lipid probe targets in Neuro2a cells (Mus musculus, UniProt P21995)
T1 sequence (P21995 34-330): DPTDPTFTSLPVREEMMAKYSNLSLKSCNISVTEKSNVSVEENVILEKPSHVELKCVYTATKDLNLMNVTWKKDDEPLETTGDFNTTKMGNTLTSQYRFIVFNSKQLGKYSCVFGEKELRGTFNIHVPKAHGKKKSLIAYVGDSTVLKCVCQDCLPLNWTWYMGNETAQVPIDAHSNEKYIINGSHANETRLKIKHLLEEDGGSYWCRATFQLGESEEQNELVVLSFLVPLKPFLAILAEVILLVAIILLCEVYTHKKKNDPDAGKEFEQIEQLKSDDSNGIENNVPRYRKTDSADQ

[3] = molecular target: T2, AEA-DA lipid probe targets in Neuro2a cells (Mus musculus, UniProt Q8K2C9)
T2 sequence (Q8K2C9 1-362): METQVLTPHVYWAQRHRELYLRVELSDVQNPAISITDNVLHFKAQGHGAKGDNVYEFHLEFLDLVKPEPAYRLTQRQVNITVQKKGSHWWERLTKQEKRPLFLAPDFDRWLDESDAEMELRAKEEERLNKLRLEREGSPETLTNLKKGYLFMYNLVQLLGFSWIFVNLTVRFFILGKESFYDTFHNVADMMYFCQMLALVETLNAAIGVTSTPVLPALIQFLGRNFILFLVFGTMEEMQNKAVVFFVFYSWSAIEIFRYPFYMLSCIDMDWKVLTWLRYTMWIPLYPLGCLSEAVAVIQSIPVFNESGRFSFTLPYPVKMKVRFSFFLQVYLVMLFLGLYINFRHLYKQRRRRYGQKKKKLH

[4] = molecular target: T3, AEA-DA lipid probe targets in Neuro2a cells (Mus musculus, UniProt Q91YQ5)
T3 sequence (Q91YQ5 26-608): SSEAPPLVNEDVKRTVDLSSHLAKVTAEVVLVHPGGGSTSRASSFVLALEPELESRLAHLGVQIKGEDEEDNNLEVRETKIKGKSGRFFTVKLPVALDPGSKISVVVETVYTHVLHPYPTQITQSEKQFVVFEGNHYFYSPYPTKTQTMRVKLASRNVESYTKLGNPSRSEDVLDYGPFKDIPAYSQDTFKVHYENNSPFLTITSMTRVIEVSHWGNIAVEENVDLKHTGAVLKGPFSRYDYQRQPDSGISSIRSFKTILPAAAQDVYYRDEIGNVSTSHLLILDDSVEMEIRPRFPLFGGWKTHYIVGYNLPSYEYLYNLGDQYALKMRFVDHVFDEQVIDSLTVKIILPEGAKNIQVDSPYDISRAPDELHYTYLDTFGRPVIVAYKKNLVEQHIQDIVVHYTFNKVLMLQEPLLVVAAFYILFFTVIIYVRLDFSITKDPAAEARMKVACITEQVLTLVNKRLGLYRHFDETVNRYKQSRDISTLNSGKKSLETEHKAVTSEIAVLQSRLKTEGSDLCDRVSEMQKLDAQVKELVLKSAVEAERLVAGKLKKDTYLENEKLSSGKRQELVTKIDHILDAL

[5] = molecular target: T4, AEA-DA lipid probe targets in Neuro2a cells (Mus musculus, UniProt Q922Q8)
T4 sequence (Q922Q8 1-307): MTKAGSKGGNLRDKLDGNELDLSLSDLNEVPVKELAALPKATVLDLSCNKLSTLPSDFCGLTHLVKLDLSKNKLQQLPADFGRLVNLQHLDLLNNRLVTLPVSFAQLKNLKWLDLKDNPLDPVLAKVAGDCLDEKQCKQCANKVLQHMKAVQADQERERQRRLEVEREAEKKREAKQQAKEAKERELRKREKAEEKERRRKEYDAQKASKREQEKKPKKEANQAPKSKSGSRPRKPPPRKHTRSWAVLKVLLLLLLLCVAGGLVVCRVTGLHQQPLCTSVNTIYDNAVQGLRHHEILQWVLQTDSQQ

[6] = molecular target: T5, AEA-DA lipid probe targets in Neuro2a cells (Mus musculus, UniProt Q9D379)
T5 sequence (Q9D379 1-455): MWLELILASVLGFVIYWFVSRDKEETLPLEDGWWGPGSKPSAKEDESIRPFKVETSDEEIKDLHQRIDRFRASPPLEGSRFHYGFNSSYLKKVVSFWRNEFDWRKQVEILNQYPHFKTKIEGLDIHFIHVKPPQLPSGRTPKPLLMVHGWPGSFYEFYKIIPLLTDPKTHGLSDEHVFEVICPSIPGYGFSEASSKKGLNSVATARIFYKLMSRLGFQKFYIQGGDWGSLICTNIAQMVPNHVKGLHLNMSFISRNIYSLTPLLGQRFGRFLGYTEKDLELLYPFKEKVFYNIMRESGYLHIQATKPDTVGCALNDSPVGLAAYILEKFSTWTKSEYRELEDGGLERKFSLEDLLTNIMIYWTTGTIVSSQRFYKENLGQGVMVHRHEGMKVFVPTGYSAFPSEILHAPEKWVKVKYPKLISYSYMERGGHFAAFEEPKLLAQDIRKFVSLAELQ

[7] = molecular target: T6, AEA-DA lipid probe targets in Neuro2a cells (Mus musculus, UniProt Q9R1J0); settings: for SILAC ratio, NSDHL (Q15738): Neuro2a cells, AEA-DA probe
T6 sequence (Q9R1J0 1-362): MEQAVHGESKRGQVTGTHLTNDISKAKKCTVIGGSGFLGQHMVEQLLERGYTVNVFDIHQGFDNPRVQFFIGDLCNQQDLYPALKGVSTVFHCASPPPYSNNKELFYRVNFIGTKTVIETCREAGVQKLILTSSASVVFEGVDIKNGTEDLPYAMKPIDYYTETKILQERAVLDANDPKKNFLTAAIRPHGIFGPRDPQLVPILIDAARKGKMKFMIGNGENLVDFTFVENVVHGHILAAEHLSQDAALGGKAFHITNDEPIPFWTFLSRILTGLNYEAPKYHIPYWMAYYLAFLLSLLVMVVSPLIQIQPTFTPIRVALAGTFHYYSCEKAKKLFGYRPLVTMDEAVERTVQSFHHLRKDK

Sequence of AEA-DA lipid probe targets in Neuro2a cells (Mus musculus, UniProt O35129) (O35129 whole entry): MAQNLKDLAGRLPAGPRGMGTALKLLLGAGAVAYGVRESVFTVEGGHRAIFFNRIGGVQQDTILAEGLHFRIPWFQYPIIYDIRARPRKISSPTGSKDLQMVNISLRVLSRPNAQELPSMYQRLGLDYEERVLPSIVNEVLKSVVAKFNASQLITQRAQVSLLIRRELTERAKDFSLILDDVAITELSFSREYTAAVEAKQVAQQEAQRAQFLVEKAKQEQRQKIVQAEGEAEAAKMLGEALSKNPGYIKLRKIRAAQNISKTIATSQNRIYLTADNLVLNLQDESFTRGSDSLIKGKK

Q: Which results are given for `CCCCC/C=C\C/C=C\C/C=C\C/C=C\CCCC(=O)NCCO` [AEA, anandamide, reference compound]?
A: SILAC ratio Phb2 ([1]; competitor 200 μM): 1.2; SILAC ratio, Emb ([2]; competitor 200 μM): 1.8; SILAC ratio ptplad1 ([3]; competitor 200 μM): 1.8; SILAC ratio Rpn1 ([4]; competitor 200 μM): 1.6; SILAC ratio Lrrc59 ([5]; competitor 200 μM): 1.6; SILAC ratio, Ephx1 ([6]; competitor 200 μM): 2.1; SILAC ratio, NSDHL (Q15738) ([7]; competitor 200 μM): 2.0; SILAC ratio, Nsdhl ([7]; competitor 200 μM): 2.0

Q: What does the source list for `O=C(/C=C/c1cccnc1)NCCCCC1CCN(C(=O)c2ccccc2)CC1` [FK-866, reference compound]?
A: SILAC ratio Phb2 ([1]; competitor 25 μM): 1.1; SILAC ratio, Emb ([2]; competitor 25 μM): 1.3; SILAC ratio ptplad1 ([3]; competitor 25 μM): 1.2; SILAC ratio Rpn1 ([4]; competitor 25 μM): 1.2; SILAC ratio Lrrc59 ([5]; competitor 25 μM): 1.2; SILAC ratio, Ephx1 ([6]; competitor 25 μM): 1.4; SILAC ratio, NSDHL (Q15738) ([7]; competitor 25 μM): 1.3; SILAC ratio, Nsdhl ([7]; competitor 25 μM): 1.3

Q: How did the “SILAC ratio Phb2” value ([1]; competitor 25 μM) turn out when `CN1CCN(C(=O)c2c(-c3ccccc3)c3cc([N+](=O)[O-])ccc3n2C)CC1` [KML110, (1-Methyl-5-nitro-3-phenyl-1H-indol-2-yl)(4-methylpiperazin-1-yl)methanone] was run?
A: 1.3

Q: And the “SILAC ratio, Emb” value ([2]; competitor 25 μM)?
A: 1.8

Q: And the “SILAC ratio ptplad1” value ([3]; competitor 25 μM)?
A: 1.7

Q: And the “SILAC ratio Rpn1” value ([4]; competitor 25 μM)?
A: 1.2

Q: And the “SILAC ratio Lrrc59” value ([5]; competitor 25 μM)?
A: 1.3

Q: What about the “SILAC ratio, Ephx1” value ([6]; competitor 25 μM) of the same compound?
A: 3.4

Q: And the “SILAC ratio, Nsdhl” value ([7]; competitor 25 μM)?
A: 1.7

Q: `CN1CCN(C(=O)c2[nH]c3ccc([N+](=O)[O-])cc3c2-c2ccccc2)CC1` [MJN228, (4-Methylpiperazin-1-yl)(5-nitro-3-phenyl-1H-indol-2-yl)methanone] was tested. Which “SILAC ratio Phb2” value ([1]; competitor 10 μM) did it give?
A: 1.3

Q: And the “SILAC ratio Phb2” value ([1]; competitor 25 μM)?
A: 1.2

Q: What about the “SILAC ratio Phb2” value ([1]; competitor 50 μM) of the same compound?
A: 1.4

Q: What about the “SILAC ratio Phb2” value ([1]; competitor 100 μM) of the same compound?
A: 1.5

Q: What about the “SILAC ratio, Emb” value ([2]; competitor 10 μM) of the same compound?
A: 1.3

Q: What about the “SILAC ratio, Emb” value ([2]; competitor 25 μM) of the same compound?
A: 1.7

Q: What about the “SILAC ratio, Emb” value ([2]; competitor 50 μM) of the same compound?
A: 1.4

Q: What about the “SILAC ratio, Emb” value ([2]; competitor 100 μM) of the same compound?
A: 2.2

Q: What about the “SILAC ratio ptplad1” value ([3]; competitor 10 μM) of the same compound?
A: 1.3

Q: What about the “SILAC ratio ptplad1” value ([3]; competitor 25 μM) of the same compound?
A: 1.7

Q: What about the “SILAC ratio ptplad1” value ([3]; competitor 50 μM) of the same compound?
A: 1.9

Q: What about the “SILAC ratio ptplad1” value ([3]; competitor 100 μM) of the same compound?
A: 2.3

Q: And the “SILAC ratio Rpn1” value ([4]; competitor 10 μM)?
A: 1.3

Q: And the “SILAC ratio Rpn1” value ([4]; competitor 25 μM)?
A: 1.4

Q: What about the “SILAC ratio Rpn1” value ([4]; competitor 50 μM) of the same compound?
A: 1.2

Q: What about the “SILAC ratio Rpn1” value ([4]; competitor 100 μM) of the same compound?
A: 1.6

Q: What about the “SILAC ratio Lrrc59” value ([5]; competitor 10 μM) of the same compound?
A: 1.3

Q: And the “SILAC ratio Lrrc59” value ([5]; competitor 25 μM)?
A: 1.5

Q: What about the “SILAC ratio Lrrc59” value ([5]; competitor 50 μM) of the same compound?
A: 1.5

Q: And the “SILAC ratio Lrrc59” value ([5]; competitor 100 μM)?
A: 2.0

Q: What about the “SILAC ratio, Ephx1” value ([6]; competitor 10 μM) of the same compound?
A: 2.5

Q: And the “SILAC ratio, Ephx1” value ([6]; competitor 25 μM)?
A: 3.8

Q: What about the “SILAC ratio, Ephx1” value ([6]; competitor 50 μM) of the same compound?
A: 8.2

Q: What about the “SILAC ratio, Ephx1” value ([6]; competitor 100 μM) of the same compound?
A: 11.5

Q: And the “SILAC ratio, NSDHL (Q15738)” value ([7]; competitor 25 μM)?
A: 2.3

Q: What about the “SILAC ratio, Nsdhl” value ([7]; competitor 10 μM) of the same compound?
A: 1.7

Q: What about the “SILAC ratio, Nsdhl” value ([7]; competitor 25 μM) of the same compound?
A: 2.3

Q: And the “SILAC ratio, Nsdhl” value ([7]; competitor 50 μM)?
A: 3.0

Q: And the “SILAC ratio, Nsdhl” value ([7]; competitor 100 μM)?
A: 4.0

Q: What does the source list for `C=CCN(C)CCCCCCOc1ccc(C(=O)c2ccc(Br)cc2)c(F)c1` [Ro 48-8071, reference compound]?
A: SILAC ratio Phb2 ([1]; competitor 25 μM): 0.9; SILAC ratio, Emb ([2]; competitor 25 μM): 1.1; SILAC ratio ptplad1 ([3]; competitor 25 μM): 1.4; SILAC ratio Rpn1 ([4]; competitor 25 μM): 0.9; SILAC ratio Lrrc59 ([5]; competitor 25 μM): 1.2; SILAC ratio, Ephx1 ([6]; competitor 25 μM): 2.4; SILAC ratio, NSDHL (Q15738) ([7]; competitor 25 μM): 1.3; SILAC ratio, Nsdhl ([7]; competitor 25 μM): 1.3
